Literature values, collected in PubChem BioAssay AID1259409 (Chemical Carcinogenesis Research Information System (CCRIS), 2018).

System: rodent chemically induced tumor inhibition, incidence and multiplicity
Assay: CCRIS tumor inhibitor studies

Cc1cc(C(C)(C)C)c(O)c(C(C)(C)C)c1
tumour outcome (control, treated, inhibition, significance) (Carcinogen: 7,12-DIMETHYLBENZ[A]ANTHRACENE, 57-97-6, Dose [Inhibitor]: 200 MG ML 1 ML IN OLIVE OIL ONCE (STUDY DURATION: 18 WK), Route [Inhibitor]: GAVAGE, Species: RAT, Strain/Sex: SPRAGUE-DAWLEY/FEMALE, Target Tissue: Type of Lesion: MAMMARY GLAND: TUMOR, Dose [Carcinogen]: 12 MG IN 1 ML OLIVE OIL ADMINISTERED 1 HR AFTER INHIBITOR, Promoter: NONE USED): 27/34 (79%), 5/18 (28%), 64%, p<0.01 | tumour outcome (control, treated, inhibition, significance) (Carcinogen: 7,12-DIMETHYLBENZ[A]ANTHRACENE, 57-97-6, Dose [Inhibitor]: 1000 UG APPLIED 6 HR BEFORE, 5 MIN BEFORE, AND 6 HR AFTER DMBA (STUDY DURATION: 28 WK), Route [Inhibitor]: DERMAL, Species: MOUSE, Strain/Sex: CD-1/FEMALE, Target Tissue: Type of Lesion: SKIN: PAPILLOMA, Dose [Carcinogen]: 2.56 UG APPLIED ONCE 5 MIN AFTER INHIBITOR, Promoter: 12-O-TETRADECANOYLPHORBOL-13-ACETATE, 16561-29-8): (82%, 35%, 57%, not calculated | tumour outcome (control, treated, inhibition, significance) (Carcinogen: 7,12-DIMETHYLBENZ[A]ANTHRACENE, 57-97-6, Dose [Inhibitor]: 1000 UG APPLIED ONCE 5 MIN BEFORE DMBA (STUDY DURATION 28 WK), Route [Inhibitor]: DERMAL, Species: MOUSE, Strain/Sex: CD-1/FEMALE, Target Tissue: Type of Lesion: SKIN: PAPILLOMA, Dose [Carcinogen]: 2.56 UG APPLIED ONCE 5 MIN AFTER INHIBITOR, Promoter: 12-O-TETRADECANOYLPHORBOL-13-ACETATE, 16561-29-8): 82%, 57%, 30%, not calculated | tumour outcome (control, treated, inhibition, significance) (Carcinogen: 7,12-DIMETHYLBENZ[A]ANTHRACENE, 57-97-6, Dose [Inhibitor]: 2500 MG/KG IN DIET STARTING 2 WK BEFORE UNTIL 1 WK AFTER CARCINOGEN ADMINISTRATION (STUDY DURATION: 32 WK), Route [Inhibitor]: ORAL, Species: RAT, Strain/Sex: SPRAGUE-DAWLEY/FEMALE, Target Tissue: Type of Lesion: MAMMARY GLAND: TUMOR, Dose [Carcinogen]: 8 MG IN 1 ML SESAME OIL ADMINISTERED ONCE, Promoter: NONE USED): 88%, 68%, 23%, not significant | tumour outcome (control, treated, inhibition, significance) (Carcinogen: BENZO[A]PYRENE, 50-32-8, Dose [Inhibitor]: 5 MG/G DIET IN SESAME OIL (4%) 3/WK FOR 28 D SIMULTANEOUSLY WITH CARCINOGEN (STUDY DURATION: 21 WK), Route [Inhibitor]: ORAL, Species: MOUSE, Strain/Sex: A/HEJ/FEMALE, Target Tissue: Type of Lesion: FORESTOMACH: TUMOR, Dose [Carcinogen]: 1 MG/G DIET IN 4% SESAME OIL IN DIET 3/WK FOR 28 D, Promoter: NONE USED): 12/12 (100%), 2/9 (22%), 78%, p<0.001 | tumour outcome (control, treated, inhibition, significance) (Carcinogen: BENZO[A]PYRENE, 50-32-8, Dose [Inhibitor]: 10 MG/G DIET 3/WK FOR 28 D SIMULTANEOUSLY WITH CARCINOGEN (STUDY DURATION: 28 WK), Route [Inhibitor]: ORAL, Species: MOUSE, Strain/Sex: ICR/FEMALE, Target Tissue: Type of Lesion: FORESTOMACH: TUMOR, Dose [Carcinogen]: 0.3 MG/G DIET 3/WK FOR 28 D, Promoter: NONE USED): 13/19 (68%), 10/20 (50%), 26%, not significant | tumour outcome (control, treated, inhibition, significance) (Carcinogen: DIETHYLNITROSAMINE, 55-18-5, Dose [Inhibitor]: 0, 50 MG/KG IN CORN OIL FOR DURATION OF STUDY BEGINNING 7 D PRIOR TO FIRST CARCINOGEN DOSE (STUDY DURATION: 6 MO), Route [Inhibitor]: GAVAGE, Species: RAT, Strain/Sex: BD6/FEMALE, Target Tissue: Type of Lesion: ESOPHAGUS: TUMOR, Dose [Carcinogen]: 80 MG/KG BW 1/WK FOR 6 WK, Promoter: NONE USED): 14%, 0%, 100%, not significant | tumour outcome (control, treated, inhibition, significance) (Carcinogen: DIETHYLNITROSAMINE, 55-18-5, Dose [Inhibitor]: 0, 50 MG/KG IN CORN OIL FOR DURATION OF STUDY BEGINNING 7 D PRIOR TO FIRST CARCINOGEN DOSE (STUDY DURATION: 6 MO), Route [Inhibitor]: GAVAGE, Species: RAT, Strain/Sex: BD6/FEMALE, Target Tissue: Type of Lesion: ESOPHAGUS: TUMOR, Dose [Carcinogen]: 80 MG/KG BW 1/WK FOR 8 WK, Promoter: NONE USED): 20%, 4%, 80%, not significant | tumour outcome (control, treated, inhibition, significance) (Carcinogen: DIETHYLNITROSAMINE, 55-18-5, Dose [Inhibitor]: 0, 50 MG/KG IN CORN OIL FOR DURATION OF STUDY BEGINNING 7 D PRIOR TO FIRST CARCINOGEN DOSE (STUDY DURATION: 6 MO), Route [Inhibitor]: GAVAGE, Species: RAT, Strain/Sex: BD6/FEMALE, Target Tissue: Type of Lesion: LIVER: TUMOR, Dose [Carcinogen]: 80 MG/KG BW 1/WK FOR 6 WK, Promoter: NONE USED): 52%, 23%, 56%, not significant | tumour outcome (control, treated, inhibition, significance) (Carcinogen: DIETHYLNITROSAMINE, 55-18-5, Dose [Inhibitor]: 0, 50 MG/KG IN CORN OIL FOR DURATION OF STUDY BEGINNING 7 D PRIOR TO FIRST CARCINOGEN DOSE (STUDY DURATION: 6 MO), Route [Inhibitor]: GAVAGE, Species: RAT, Strain/Sex: BD6/FEMALE, Target Tissue: Type of Lesion: LIVER: TUMOR, Dose [Carcinogen]: 80 MG/KG BW 1/WK FOR 8 WK, Promoter: NONE USED): 83%, 72%, 13%, not significant | tumour outcome (control, treated, inhibition, significance) (Carcinogen: HYDRAZINE SULFATE, 10034-93-2, Dose [Inhibitor]: 5000 PPM IN DIET STARTING 1 WK PRIOR TO ADMINISTRATION OF CARCINOGEN UNTIL END OF EXPERIMENT (STUDY DURATION: APPROXIMAT, Route [Inhibitor]: ORAL, Species: MOUSE, Strain/Sex: SWISS/MALE, FEMALE, Target Tissue: Type of Lesion: LIVER AND LUNG: COMBINED TUMORS, Dose [Carcinogen]: 1.1 MG/D 5 D/WK UNTIL 12 MO OF AGE, Promoter: NONE USED): 24/29 (83%), 19/28 (68%), 18%, not significant | tumour outcome (control, treated, inhibition, significance) (Carcinogen: ISONIAZID, 54-85-3, Dose [Inhibitor]: 5000 PPM IN DIET STARTING 1 WK PRIOR TO ADMINISTRATION OF CARCINOGEN UNTIL END OF EXPERIMENT (STUDY DURATION: APPROXIMAT, Route [Inhibitor]: ORAL, Species: MOUSE, Strain/Sex: SWISS/MALE, FEMALE, Target Tissue: Type of Lesion: LIVER AND LUNG: COMBINED TUMORS, Dose [Carcinogen]: 1.1 MG/D 5 D/WK UNTIL 25 M OF AGE, Promoter: NONE USED): 16/29 (55%), 4/20 (20%), 64%, p<0.05 | tumour outcome (control, treated, inhibition, significance) (Carcinogen: ISONIAZID, 54-85-3, Dose [Inhibitor]: 5000 PPM IN DIET STARTING 1 WK PRIOR TO ADMINISTRATION OF CARCINOGEN UNTIL END OF EXPERIMENT (STUDY DURATION: APPROXIMAT, Route [Inhibitor]: ORAL, Species: MOUSE, Strain/Sex: SWISS/MALE, FEMALE, Target Tissue: Type of Lesion: LIVER AND LUNG: COMBINED TUMORS, Dose [Carcinogen]: 1.1 MG/D 5 D/WK UNTIL 25 MO OF AGE, Promoter: NONE USED): 16/29 (55%), 5/20 (25%), 54%, p<0.05 | tumour outcome (control, treated, inhibition, significance) (Carcinogen: N-BIS(2-HYDROXYPROPYL)NITROSAMINE, 53609-64-6, Dose [Inhibitor]: 0, 1% IN DIET FOR 30 WK BEGINNING POST CARCINOGEN TREATMENT (STUDY DURATION: 32 WK), Route [Inhibitor]: ORAL, Species: RAT, Strain/Sex: F344/MALE, Target Tissue: Type of Lesion: BLADDER: ADENOMA, Dose [Carcinogen]: 0.1% IN DRINKING WATER FOR 2 WK, Promoter: NONE USED): 5%, 0%, 100%, not calculated | tumour outcome (control, treated, inhibition, significance) (Carcinogen: N-BIS(2-HYDROXYPROPYL)NITROSAMINE, 53609-64-6, Dose [Inhibitor]: 0, 1% IN DIET FOR 30 WK BEGINNING POST CARCINOGEN TREATMENT (STUDY DURATION: 32 WK), Route [Inhibitor]: ORAL, Species: RAT, Strain/Sex: F344/MALE, Target Tissue: Type of Lesion: KIDNEY: TUMOR, Dose [Carcinogen]: 0.1% IN DRINKING WATER FOR 2 WK, Promoter: NONE USED): 10%, 30%, -200%, not calculated
